According to patent US11365195B2, “Atypical inhibitors of monoamine transporters; method of making; and use thereof” (THE UNITED STATES OF AMERICA, AS REPRESENTED BY THE …, priority 2017, dated 2022):
Like-named read-outs stand apart in the source and are kept apart here.

Columns and labels:
DAT = target: T1, DAT (Rattus norvegicus, UniProt P23977); test: DAT radioligand binding in rat striatum ([3H]-WIN35,428 competition); details: for SERT/DAT: ratio of SERT Ki to DAT Ki
T1 construct: 100 μl of tissue preparation (1.5 mg of brain striatum membranes per well); tissue Bioreclamation IVT (Hicksville, N.Y.); host or cells: male Sprague-Dawley rat brain striatum membranes
T1 sequence (P23977 whole entry): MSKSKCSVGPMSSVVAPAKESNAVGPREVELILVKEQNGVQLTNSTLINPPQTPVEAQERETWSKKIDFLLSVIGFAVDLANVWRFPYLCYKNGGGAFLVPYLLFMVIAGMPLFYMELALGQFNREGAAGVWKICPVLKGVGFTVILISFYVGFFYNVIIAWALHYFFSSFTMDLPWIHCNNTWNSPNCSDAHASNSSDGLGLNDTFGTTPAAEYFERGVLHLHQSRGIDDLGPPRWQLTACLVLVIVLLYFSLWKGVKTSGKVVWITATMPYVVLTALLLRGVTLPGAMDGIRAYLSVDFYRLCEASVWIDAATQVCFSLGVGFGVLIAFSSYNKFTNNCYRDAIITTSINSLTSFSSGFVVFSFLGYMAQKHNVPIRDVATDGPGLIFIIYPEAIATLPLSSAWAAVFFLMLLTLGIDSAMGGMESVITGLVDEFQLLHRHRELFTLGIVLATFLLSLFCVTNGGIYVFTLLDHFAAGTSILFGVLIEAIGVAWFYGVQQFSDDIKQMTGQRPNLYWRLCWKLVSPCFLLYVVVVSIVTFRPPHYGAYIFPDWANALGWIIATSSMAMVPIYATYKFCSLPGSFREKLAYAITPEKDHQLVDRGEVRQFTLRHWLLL
Method: (§1) Binding affinities of the analogue compounds were evaluated at the DAT and SERT in rat brain membranes, and sigma-1 in guinea pig brain membranes according to the following protocols.
DAT Radioligand Binding in Rat Striatum
The tissue was centrifuged at 20,000 rpm for 10 min at 4° C. The pellet was suspended in cold buffer and centrifuged again using the same settings. The resulting pellet was resuspended in cold buffer at a concentration of 15 mg/mL OWW (original wet weight). On test day, all test compounds were freshly dissolved in 30% DMSO and 70% H2O to a stock concentration of 1 mM or 100 μM When necessary, to assist the solubilization of compounds, 10 μl of glacial acetic acid was added along with the DMSO (in place of 10 μl final H2O volume). Each test compound was then diluted into 10 half-log serial dilutions using 30% DMSO vehicle. […] Non-specific binding was determined using […] Indatraline and total binding was determined with 30% DMSO vehicle. The reaction was started with the addition of the tissue. […] The filters were washed 3 times with 3 mL (3×1 mL/well) of ice cold binding buffer. […] These analyses were performed using GraphPad Prism version 6.00 for Macintosh (GraphPad Software, San Diego, Calif.).

SERT = target: T2, SERT (Rattus norvegicus, UniProt P31652); test: SERT radioligand binding in rat midbrain ([3H]-Citalopram competition)
T2 construct: 100 μl of tissue preparation (2 mg of brain stem membranes per well); tissue Bioreclamation IVT (Hicksville, N.Y.); host or cells: male Sprague-Dawley rat brain stem membranes
T2 sequence (P31652 whole entry): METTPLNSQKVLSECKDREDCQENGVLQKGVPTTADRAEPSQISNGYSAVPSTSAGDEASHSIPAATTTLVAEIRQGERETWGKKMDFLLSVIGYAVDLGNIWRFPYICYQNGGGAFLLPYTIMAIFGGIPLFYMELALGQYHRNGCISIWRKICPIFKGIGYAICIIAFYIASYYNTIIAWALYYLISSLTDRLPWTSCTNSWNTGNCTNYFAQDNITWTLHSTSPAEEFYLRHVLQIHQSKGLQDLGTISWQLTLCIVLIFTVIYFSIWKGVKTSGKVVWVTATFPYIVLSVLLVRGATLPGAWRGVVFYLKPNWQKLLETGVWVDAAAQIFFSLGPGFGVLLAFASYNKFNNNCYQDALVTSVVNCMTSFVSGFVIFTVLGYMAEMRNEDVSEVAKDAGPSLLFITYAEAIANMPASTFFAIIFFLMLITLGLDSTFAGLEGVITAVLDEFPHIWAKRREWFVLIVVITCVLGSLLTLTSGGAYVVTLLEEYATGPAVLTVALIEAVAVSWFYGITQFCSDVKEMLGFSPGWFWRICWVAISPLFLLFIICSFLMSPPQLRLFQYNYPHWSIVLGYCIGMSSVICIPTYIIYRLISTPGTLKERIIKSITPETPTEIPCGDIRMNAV
Method: as §1
SERT Radioligand Binding in Rat Midbrain
The tissue was centrifuged at 20,000 rpm for 10 min at 4° C. The pellet was suspended in cold buffer and centrifuged again using the same settings. The resulting pellet was resuspended in cold buffer at a concentration of 20 mg/mL OWW (original wet weight). On test day, all test compounds were freshly dissolved in 30% DMSO and 70% H2O to a stock concentration of 1 mM or 100 μM. When necessary, to assist the solubilization of compounds, 10 μl of glacial acetic acid was added along with the DMSO (in place of 10 μl final H2O volume). Each test compound was then diluted into 10 half-log serial dilutions using 30% DMSO vehicle. […] Non-specific binding was determined using […] Fluoxetine HCl and total binding was determined with 30% DMSO vehicle. The reaction was started with the addition of the tissue. All compound dilutions were tested in triplicate and the reaction incubated for 60 min at room temperature. The reaction was terminated by filtration through Perkin Elmer Uni-Filter-96 GF/B, presoaked for 60 min in 0.3% polyethylenimine, using a Brandel 96-Well Plates Harvester Manifold (Brandel Instruments, Gaithersburg, Md.). The filters were washed 3 times with 3 mL (3×1 mL/well) of ice cold binding buffer. […] These analyses were performed using GraphPad Prism version 6.00 for Macintosh (GraphPad Software, San Diego, Calif.).

σ1R = target: T3, σ1R (Cavia porcellus, UniProt Q60492); test: σ1R radioligand binding in guinea pig cortex ([3H]-(+)-Pentazocine competition); details: for σ1/DAT: ratio of σ1 to DAT affinity values; for σ1/SERT: ratio of σ1 to SERT affinity values
T3 construct: tissue BioReclamation IVT (Hicksville, N.Y.); host or cells: male Hartley guinea pig brain cortex membranes
T3 sequence (Q60492 whole entry): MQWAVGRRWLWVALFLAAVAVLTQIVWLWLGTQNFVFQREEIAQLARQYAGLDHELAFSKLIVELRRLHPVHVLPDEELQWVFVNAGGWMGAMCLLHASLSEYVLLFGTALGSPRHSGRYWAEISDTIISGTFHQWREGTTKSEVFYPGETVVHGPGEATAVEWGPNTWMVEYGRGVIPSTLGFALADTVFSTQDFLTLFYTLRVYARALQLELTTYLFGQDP
Method: as §1
σ1R Radioligand Binding in Guinea Pig Cortex
Male Hartley guinea pig cortices were dissected from freshly harvested brains (shipped cold in PBS buffer from BioReclamation IVT (Hicksville, N.Y.)) and frozen at −80° C. for future use. […] The supernatant was collected in a clean tube and the pellet re-suspended in 10 ml of cold buffer and centrifuged again (˜1,200 rpm) for 10 min at 4° C. […] The final pellet was suspended in ice-cold binding buffer at 50 mg/ml concentration. […] All test compounds were freshly dissolved in 30% DMSO and 70% H2O to a stock concentration of 1 mM or 100 μM. When necessary, to assist the solubilization of compounds, 10 μl of glacial acetic acid was added along with the DMSO (in place of 10 μl final H2O volume). Each test compound was then diluted into 10 half-log serial dilutions using 30% DMSO as the vehicle. […] Nonspecific binding was determined using either 10 μM PRE084 or 10 μM (+)-Pentazocine and total binding was determined with 30% DMSO vehicle (3% DMSO final concentration). […] The filters were washed 3 times with 3 ml (3×1 ml/well) of ice cold binding buffer.

[1] = Phase I metabolic stability in rat liver microsomes; type: in vitro ADME; details: for Phase I in Liver Microsomes, Negative Control: rat liver microsomes lacking NADPH; for Phase I in Liver Microsomes, Rat: with NADPH, 10 μM compound, 0.5 mg/mL microsomes
Method: Methods: Phase I metabolic stability assays were conducted in rat liver microsomes. For phase I metabolism, the reactions were carried out with 100 mM potassium phosphate buffer, pH 7.4, in the presence of NADPH regenerating system (1.3 mM NADPH, 3.3 mM glucose 6-phosphate, 3.3 mM MgCl2, 0.4 U/mL glucose-6-phosphate dehydrogenase, […] sodium citrate). Reactions in triplicate were initiated by addition of the liver microsomes to the incubation mixture (compound final concentration was 10 μM; 0.5 mg/mL microsomes). Compound disappearance was monitored via LC/MS/MS. […] The total run time for each analyte was 5.0 min.

[2] = rat striatum membranes, [3H]-WIN35,428, mean ± SEM, read-out: DAT (rat striatum) Ki ± SEM
[3] = rat midbrain/brain stem membranes, [3H]-Citalopram, mean ± SEM, read-out: SERT (rat mid-brain-stem) Ki ± SEM

Row | SMILES | Ki (DAT; [2]) | SERT/DAT (DAT) | Ki (SERT; [3]) | σ1/DAT (σ1R) | σ1/SERT (σ1R) | other results
1 | Fc1ccc(C(SCCNC2CCN(Cc3ccccc3)CC2)c2ccc(F)cc2)cc1 [JBG01-052, 1-Benzyl-N-(2-((bis(4-fluorophenyl)methyl)thio)ethyl)piperidin-4-amine] | 0.0329 ± 0.00586 µM | 12.37 | 0.407 ± 0.0579 µM | 0.12 | 0.0098 | Kd (σ1R): 0.00397 ± 0.000767 µM
2 | Cl.Cl.OC(Cc1ccccc1)CN(CC(O)Cc1ccccc1)C1CCN(CCSC(c2ccc(F)cc2)c2ccc(F)cc2)CC1 (centres unmarked) [JBG01-056, 3,3′-((1-(2-((Bis(4-fluorophenyl)methyl)thio)ethyl)piperidin-4-yl)azanediyl)bis(1-phenylpropan-2-ol)] |  | 8.44 |  | 1.75 | 0.21 | Ki (DAT): 0.186 ± 0.0464 µM; Ki (SERT): 1.57 ± 0.315 µM; Kd (σ1R): 0.326 ± 0.0224 µM
3 | Fc1ccc(C(SCCN2CCC(NCc3ccccc3)CC2)c2ccc(F)cc2)cc1 [JBG01-057, N-Benzyl-1-(2-((bis(4-fluorophenyl)methyl)thio)ethyl)piperidin-4-amine] | 0.108 ± 0.0175 µM | 3.05 | 0.329 ± 0.0343 µM | 0.56 | 0.19 | 
4 | Cl.Cl.OC(Cc1ccccc1)CN1CCC(NCCSC(c2ccc(F)cc2)c2ccc(F)cc2)CC1 (centres unmarked) [JBG01-058, 1-(4-((2-((Bis(4-fluorophenyl)methyl)thio)ethyl)amino)piperidin-1-yl)-3-phenylpropan-2-ol] |  |  | 0.128 ± 0.0332 µM |  |  | Phase I in Liver Microsomes, Negative Control ([1]; 0 min): 100%; Phase I in Liver Microsomes, Rat ([1]; 0 min): 100%; Phase I in Liver Microsomes, Rat ([1]; 30 min): 98%; Phase I in Liver Microsomes, Negative Control ([1]; 60 min): 96%; Phase I in Liver Microsomes, Rat ([1]; 60 min): 74%
5 | Cl.Cl.Fc1ccc(CNC2CCN(CCSC(c3ccc(F)cc3)c3ccc(F)cc3)CC2)cc1 [JBG01-064, 1-(2-((Bis(4-fluorophenyl)methyl)thio)ethyl)-N-(4-fluorobenzyl)piperidin-4-amine] | 0.0559 ± 0.00608 µM | 4.78 | 0.267 ± 0.00925 µM | 0.74 | 0.16 | 
6 | Cl.Cl.Fc1ccc(C(SCCNC2CCN(Cc3ccc(Cl)cc3)CC2)c2ccc(F)cc2)cc1 [JBG01-078, N-(2-((Bis(4-fluorophenyl)methyl)thio)ethyl)-1-(4 chlorobenzyl)piperidin-4-amine] | 0.0396 ± 0.00927 µM | 8.99 | 0.356 ± 0.000862 µM | 1.15 | 0.13 | 
7 | Cl.Cl.Fc1ccc(C(SCCNC2CCN(Cc3ccc(C(F)(F)F)cc3)CC2)c2ccc(F)cc2)cc1 [JBG01-083, N-(2-((Bis(4-fluorophenyl)methyl)thio)ethyl)-1-(4-(trifluoromethyl)benzyl)piperidin-4-amine] | 0.19 ± 0.0479 µM | 8.53 | 1.62 ± 0.175 µM |  |  | 
8 | Cl.Cl.Fc1ccc(C(SCCNC2CCN(CCc3ccccc3)CC2)c2ccc(F)cc2)cc1 [JBG01-084, N-(2-((Bis(4-fluorophenyl)methyl)thio)ethyl)-1-phenethylpiperidin-4-amine] | 0.0315 ± 0.00532 µM | 4.57 | 0.144 ± 0.017 µM | 1.83 | 0.40 | 
9 | Cl.Cl.Fc1ccc(C(SCCN2CCC(NCc3ccc(Cl)cc3)CC2)c2ccc(F)cc2)cc1 [JBG01-086, 1-(2-((Bis(4-fluorophenyl)methyl)thio)ethyl)-N-(4-chlorobenzyl)piperidin-4-amine] | 0.0865 ± 0.0356 µM | 4.57 | 0.395 ± 0.0566 µM | 0.72 | 0.16 | 
10 | Cl.Cl.Fc1ccc(C(SCCN2CCC(NCc3ccc(C(F)(F)F)cc3)CC2)c2ccc(F)cc2)cc1 [JBG01-087, 1-(2-((Bis(4-fluorophenyl)methyl)thio)ethyl)-N-(4-(trifluoromethyl)benzyl)piperidin-4-amine] | 0.128 ± 0.0319 µM | 8.13 | 1.04 ± 0.19 µM |  |  | 
11 | Cl.O=C(c1ccccc1)N1CCC(NCCSC(c2ccc(F)cc2)c2ccc(F)cc2)CC1 [JBG02-009, (4-((2-((Bis(4-fluorophenyl)methyl)thio)ethyl)amino)piperidin-1-yl)(phenyl)methanone] |  |  |  |  |  | Kd (σ1R): 0.00204 ± 0.000298 µM; Phase I in Liver Microsomes, Negative Control ([1]; 0 min): 100%; Phase I in Liver Microsomes, Rat ([1]; 0 min): 100%; Phase I in Liver Microsomes, Rat ([1]; 30 min): 20%; Phase I in Liver Microsomes, Negative Control ([1]; 60 min): 100%; Phase I in Liver Microsomes, Rat ([1]; 60 min): 7%; stability to Phase I metabolism (in words) ([1]; rat liver microsomes fortified with NADPH): susceptibility
12 | Cl.Cl.Fc1ccc(C(SCCNC2CCN(Cc3cc4ccccc4[nH]3)CC2)c2ccc(F)cc2)cc1 [JBG02-014, 1-((1H-Indol-2-yl)methyl)-N-(2-((bis(4-fluorophenyl)methyl)thio)ethyl)piperidin-4-amine] | 0.179 ± 0.022 µM | 9.61 | 1.72 ± 0.516 µM |  |  | 
13 | O=C(c1cc2ccccc2o1)N1CCC(NCCSC(c2ccc(F)cc2)c2ccc(F)cc2)CC1 [JBG02-015, Benzofuran-2-yl(4-((2-((bis(4-fluorophenyl)methyl)thio)ethyl)amino)piperidin-1-yl)methanone] | 0.115 ± 0.0195 µM |  | 0.0964 ± 0.0237 µM |  |  | 
14 | Cl.Cl.O.O=C(c1cc2ccccc2[nH]1)N1CCC(NCCSC(c2ccc(F)cc2)c2ccc(F)cc2)CC1 [JBG02-029, (4-((2-((Bis(4-fluorophenyl)methyl)thio)ethyl)amino)piperidin-1-yl)(1H-indol-2-yl)methanone] |  | 5.21 | 0.938 ± 0.0765 µM |  |  | Ki (DAT): 0.18 ± 0.0398 µM
15 | Cl.O=C(c1ccccc1)N1CCC(NCC[S+]([O-])C(c2ccc(F)cc2)c2ccc(F)cc2)CC1 (centres unmarked) [JBG02-055, (4-((2-((Bis(4-fluorophenyl)methyl)sulfinyl)ethyl)amino)piperidin-1-yl)(phenyl)methanone] | 0.0791 ± 0.0206 µM | 97.72 | 7.73 ± 0.732 µM |  |  | 
16 | CC(C)(C)C(=O)N1CCC(NCCSC(c2ccc(F)cc2)c2ccc(F)cc2)CC1.Cl [JBG02-064, 1-(4-((2-((Bis(4-fluorophenyl)methyl)thio)ethyl)amino)piperidin-1-yl)-2,2-dimethylpropan-1-one] | 0.352 ± 0.137 µM | 2.84 | 1 ± 0.228 µM |  |  | 
17 | CC(C)(C)CN1CCC(NCCSC(c2ccc(F)cc2)c2ccc(F)cc2)CC1 [JBG02-066, N-(2-((Bis(4-fluorophenyl)methyl)thio)ethyl)-1-neopentylpiperidin-4-amine] | 0.279 ± 0.0394 µM | 3.39 | 0.947 ± 0.101 µM | 1.13 |  | 
